Experimental findings from ChEMBL document CHEMBL5113438, “Discovery of highly potent and selective CRBN-recruiting EGFRL858R/T790M degraders in vivo” (Eur J Med Chem, 2022) are described below.

One series concerns A549. Kind of series: Antiproliferative activity against human A549 cells expressing wild type EGFR incubated for 72 hrs by CCK-8 assay. Type of series: functional, cell-based. The conditions noted are these: A549, 72 h.
The nature of series [1]: Selectivity ratio IC50 for human NCI-H1299 cells expressing wild type EGFR to human NCI-H1975 cells expressing EGFR L858R/T790M. The format is functional.
Series [2] deals with NCI-H1299. The series can be described thus: Antiproliferative activity against human NCI-H1299 cells expressing wild type EGFR incubated for 72 hrs by CCK-8 assay. The conditions noted are these: NCI-H1299, 72 h. The format is functional, cell-based. (Tetrazolium dyes change colour on reduction, which living cells bring about.)
The test system of series [3] is NCI-H1975. The series can be described thus: Antiproliferative activity against human NCI-H1975 cells expressing EGFR L858R/T790M incubated for 72 hrs by CCK-8 assay. The settings on record: NCI-H1975, 72 h. Type of series: functional, cell-based.
The next series has as its system HCC827. Kind of series: Antiproliferative activity against human NCI-HCC827 cells expressing EGFR del19 incubated for 72 hrs by CCK-8 assay. Type of series: functional, cell-based. The settings on record: HCC827, 72 h.
In series [4] the test system is NCI-H1299. Kind of series: Induction of apoptosis in human NCI-H1299 cells assessed as late apoptotic cells at 1.0 uM incubated for 48 hrs by AnnexinV-FITC/propidium iodide staining based flow cytometry analysis (reference value: 1.53 % ). The format is functional. A general note: Flow cytometry measures light scatter and fluorescence of single cells or particles in a stream.

Series [5] deals with NCI-H1975. Kind of series: Induction of apoptosis in human NCI-H1975 cells assessed as viable cells at 0.1 uM incubated for 48 hrs by AnnexinV-FITC/propidium iodide staining based flow cytometry analysis (reference value: 96.2 % ). The format is functional. The settings on record: read-out: Activity.
The subject of series [6] is NCI-H1975. Kind of series: Induction of apoptosis in human NCI-H1975 cells assessed as viable cells at 1.0 uM incubated for 48 hrs by AnnexinV-FITC/propidium iodide staining based flow cytometry analysis (reference value: 96.2 % ). Type of series: functional. The conditions noted are these: read-out: Activity.
Series [7] concerns NCI-H1975. The series can be described thus: Induction of apoptosis in human NCI-H1975 cells assessed as late apoptotic cells at 1.0 uM incubated for 48 hrs by AnnexinV-FITC/propidium iodide staining based flow cytometry analysis (reference value: 1.35 % ). The format is functional.
Series [8] relates to NCI-H1299. Kind of series: Induction of apoptosis in human NCI-H1299 cells assessed as viable cells at 0.1 uM incubated for 48 hrs by AnnexinV-FITC/propidium iodide staining based flow cytometry analysis (reference value: 98.05 % ). The format is functional. The settings on record: read-out: Activity.
In series [9] the test system is NCI-H1299. The series can be described thus: Induction of apoptosis in human NCI-H1299 cells assessed as late apoptotic cells at 0.1 uM incubated for 48 hrs by AnnexinV-FITC/propidium iodide staining based flow cytometry analysis (reference value: 1.53 % ). Type of series: functional.
Series [10] concerns NCI-H1299. Kind of series: Induction of apoptosis in human NCI-H1299 cells assessed as necrotic cells at 0.1 uM incubated for 48 hrs by AnnexinV-FITC/propidium iodide staining based flow cytometry analysis (reference value: 0.24 % ). Type of series: functional.
Series [11] has as its system NCI-H1975. The series can be described thus: Induction of apoptosis in human NCI-H1975 cells assessed as necrotic cells at 0.1 uM incubated for 48 hrs by AnnexinV-FITC/propidium iodide staining based flow cytometry analysis (reference value: 3.28 % ). Type of series: functional.
The test system of series [12] is NCI-H1975. The series can be described thus: Induction of apoptosis in human NCI-H1975 cells assessed as necrotic cells at 1.0 uM incubated for 48 hrs by AnnexinV-FITC/propidium iodide staining based flow cytometry analysis (reference value: 3.28 % ). The format is functional.
The test system of series [13] is NCI-H1299. Kind of series: Induction of apoptosis in human NCI-H1299 cells assessed as viable cells at 1.0 uM incubated for 48 hrs by AnnexinV-FITC/propidium iodide staining based flow cytometry analysis (reference value: 98.05 % ). The format is functional. The conditions noted are these: read-out: Activity.
The test system of series [14] is NCI-H1299. The series can be described thus: Induction of apoptosis in human NCI-H1299 cells assessed as early apoptotic cells at 0.1 uM incubated for 48 hrs by AnnexinV-FITC/propidium iodide staining based flow cytometry analysis (reference value: 0.11 % ). Type of series: functional.
A short description of series [15]: Plasma protein binding in rat assessed as unbound fraction at 1 uM incubated for 4 hrs by rapid equilibrium dialysis method. Type of series: ADME, cell-free. The settings on record: read-out: PPB (converted). On the technique in general: In equilibrium dialysis only unbound substance equilibrates across the membrane.
Series [16] concerns NCI-H1975. Kind of series: Induction of apoptosis in human NCI-H1975 cells assessed as early apoptotic cells at 0.1 uM incubated for 48 hrs by AnnexinV-FITC/propidium iodide staining based flow cytometry analysis (reference value: 0.11 % ). The format is functional.
The test system of series [17] is NCI-H1975. The series can be described thus: Induction of apoptosis in human NCI-H1975 cells assessed as late apoptotic cells at 0.1 uM incubated for 48 hrs by AnnexinV-FITC/propidium iodide staining based flow cytometry analysis (reference value: 1.35 % ). Type of series: functional.
Series [18] has as its system NCI-H1299. The series can be described thus: Induction of apoptosis in human NCI-H1299 cells assessed as necrotic cells at 1.0 uM incubated for 48 hrs by AnnexinV-FITC/propidium iodide staining based flow cytometry analysis (reference value: 0.24 % ). Type of series: functional.
Series [19] has as its system NCI-H1299. The series can be described thus: Induction of apoptosis in human NCI-H1299 cells assessed as early apoptotic cells at 1.0 uM incubated for 48 hrs by AnnexinV-FITC/propidium iodide staining based flow cytometry analysis (reference value: 0.11 % ). Type of series: functional.
Series [20] has as its system NCI-H1975. Kind of series: Induction of apoptosis in human NCI-H1975 cells assessed as early apoptotic cells at 1.0 uM incubated for 48 hrs by AnnexinV-FITC/propidium iodide staining based flow cytometry analysis (reference value: 0.11 % ). The format is functional.
Series [21] concerns BaF3. Kind of series: Antiproliferative activity against mouse BaF3 harbouring EGFR L858R/T790M/L718Q mutant assessed as inhibition of cell growth incubated for 72 hrs by MTS assay. Type of series: functional, cell-based. The settings on record: BaF3, 72 h.
Series [22] deals with BaF3. The series can be described thus: Antiproliferative activity against mouse BaF3 harbouring EGFR L858R/T790M/C797S mutant assessed as inhibition of cell growth incubated for 72 hrs by MTS assay. The format is functional, cell-based. The conditions noted are these: BaF3, 72 h.
Series [23] concerns BaF3. Kind of series: Antiproliferative activity against mouse BaF3 harbouring EGFR L858R/T790M mutant assessed as inhibition of cell growth incubated for 72 hrs by MTS assay. The format is functional, cell-based. The settings on record: BaF3, 72 h.
For series [24], the target named is von Hippel-Lindau disease tumor suppressor/Epidermal growth factor receptor (Homo sapiens, UniProt P00533+P40337, L858R/T790M). Kind of series: Protac activity at VHL/EGFR L858R/T790M mutant in human NCI-H1975 cells assessed as induction of degradation of EGFR incubated for 24 hrs in presence of afatinib by immunoblot analysis. The format is cell-based.

The structures appear in SMILES notation. Some results are limits rather than exact numbers.

von Hippel-Lindau disease tumor suppressor/Epidermal growth factor receptor, sequence (P00533 25-1210 T790M/L858R limits assumed, stated change not applied): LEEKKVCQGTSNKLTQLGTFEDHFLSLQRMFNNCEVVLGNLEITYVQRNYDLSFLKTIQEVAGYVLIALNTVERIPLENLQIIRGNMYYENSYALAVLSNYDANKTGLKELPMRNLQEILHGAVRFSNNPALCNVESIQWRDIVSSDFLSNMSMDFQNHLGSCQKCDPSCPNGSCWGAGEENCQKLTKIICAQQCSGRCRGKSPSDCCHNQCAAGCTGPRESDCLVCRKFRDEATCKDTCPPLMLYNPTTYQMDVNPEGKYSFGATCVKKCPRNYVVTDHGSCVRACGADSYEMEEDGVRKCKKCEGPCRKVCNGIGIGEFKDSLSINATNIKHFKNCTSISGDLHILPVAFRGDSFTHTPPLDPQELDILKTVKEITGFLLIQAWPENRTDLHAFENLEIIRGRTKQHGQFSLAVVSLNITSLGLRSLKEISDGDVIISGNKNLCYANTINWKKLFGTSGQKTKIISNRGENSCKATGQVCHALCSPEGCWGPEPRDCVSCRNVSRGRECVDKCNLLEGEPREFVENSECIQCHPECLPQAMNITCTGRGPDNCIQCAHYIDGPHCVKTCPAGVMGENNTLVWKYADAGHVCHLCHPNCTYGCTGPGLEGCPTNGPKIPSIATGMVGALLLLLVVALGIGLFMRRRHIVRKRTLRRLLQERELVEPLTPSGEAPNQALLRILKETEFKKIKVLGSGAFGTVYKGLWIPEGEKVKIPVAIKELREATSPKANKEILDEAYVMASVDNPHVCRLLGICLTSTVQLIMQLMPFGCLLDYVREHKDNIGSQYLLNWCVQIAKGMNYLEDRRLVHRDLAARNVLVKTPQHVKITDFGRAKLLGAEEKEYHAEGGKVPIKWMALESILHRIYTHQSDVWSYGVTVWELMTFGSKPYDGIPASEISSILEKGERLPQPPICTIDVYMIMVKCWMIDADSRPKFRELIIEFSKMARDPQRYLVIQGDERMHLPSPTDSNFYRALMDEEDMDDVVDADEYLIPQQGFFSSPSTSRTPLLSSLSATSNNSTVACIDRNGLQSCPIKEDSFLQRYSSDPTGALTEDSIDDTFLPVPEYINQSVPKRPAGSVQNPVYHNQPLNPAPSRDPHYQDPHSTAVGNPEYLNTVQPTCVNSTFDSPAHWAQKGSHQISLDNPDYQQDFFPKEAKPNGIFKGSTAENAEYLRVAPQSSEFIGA
von Hippel-Lindau disease tumor suppressor/Epidermal growth factor receptor, sequence (P40337 whole entry, stated change not applied): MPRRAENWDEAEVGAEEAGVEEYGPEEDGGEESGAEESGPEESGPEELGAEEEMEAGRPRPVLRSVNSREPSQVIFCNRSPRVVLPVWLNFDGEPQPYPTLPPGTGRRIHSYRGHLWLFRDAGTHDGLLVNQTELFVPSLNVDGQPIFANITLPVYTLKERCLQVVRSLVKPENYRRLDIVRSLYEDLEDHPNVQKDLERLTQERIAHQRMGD

As usually defined, the IC50 is the point on the concentration scale where inhibition reaches its midpoint. `C#CCN(CCCCCCC(=O)Nc1cccc2c1CN(C1CCC(=O)NC1=O)C2=O)CCN(C)c1cc(OC)c(Nc2nccc(-c3cn(C)c4ccccc34)n2)cc1NC(=O)C=C` (stereo unspecified): the IC50 was over 100000 nM in the series on A549, over 100000 nM in the series with NCI-H1299 [2], 1110 nM in the series on NCI-H1975 [3] and 358 nM with HCC827. For the same molecule, in series [1], the “Ratio IC50” value was 90.
For the molecule `C#CCN(CCCCCC(=O)Nc1cccc2c1CN(C1CCC(=O)NC1=O)C2=O)CCN(C)c1cc(OC)c(Nc2nccc(-c3cn(C)c4ccccc34)n2)cc1NC(=O)C=C` (stereo unspecified), the IC50 with A549 was over 100000 nM; with NCI-H1299 [2] it was over 100000 nM; with NCI-H1975 [3], 3560 nM; with HCC827, 649 nM. Also, in series [1], the “Ratio IC50” value is 28.
With `C#CCN(CCCCC(=O)Nc1cccc2c1CN(C1CCC(=O)NC1=O)C2=O)CCN(C)c1cc(OC)c(Nc2nccc(-c3cn(C)c4ccccc34)n2)cc1NC(=O)C=C` (stereo unspecified), the half-maximal inhibitory concentration (IC50) is over 100000 nM in the series on A549, over 100000 nM in the series on NCI-H1299 [2], 1020 nM in the series with NCI-H1975 [3] and 309 nM with HCC827. The “Ratio IC50” value in [1] amounted to 98.
In the case of `C#CCN(CCCCCCCCCC(=O)Nc1cccc2c1CN(C1CCC(=O)NC1=O)C2=O)CCN(C)c1cc(OC)c(Nc2nccc(-c3cn(C)c4ccccc34)n2)cc1NC(=O)C=C` (stereo unspecified), the IC50 with A549 is over 100000 nM; in the series with NCI-H1299 [2], over 100000 nM; with NCI-H1975 [3], 6800 nM; in the series on HCC827, 2650 nM. The “Ratio IC50” value in series [1] turned out to be 14.
As to `C#CCN(CCCCCCCC(=O)Nc1cccc2c1CN(C1CCC(=O)NC1=O)C2=O)CCN(C)c1cc(OC)c(Nc2nccc(-c3cn(C)c4ccccc34)n2)cc1NC(=O)C=C` (stereo unspecified), the IC50 was over 100000 nM with A549, over 100000 nM in the series on NCI-H1299 [2], 1360 nM in the series on NCI-H1975 [3] and 457 nM in the series on HCC827. For the same molecule, the “Ratio IC50” value in [1] is reported as 74.
`C=CC(=O)Nc1cc(Nc2nccc(-c3cn(C)c4ccccc34)n2)c(OC)cc1N(C)CCN(C)C` [OSIMERTINIB]: the Activity with NCI-H1299 [4] came out at 2.14%; in the series on NCI-H1975 [7], 34.7%; in the series on NCI-H1299 [9], […]; with NCI-H1299 [10] it was 0.34%; with NCI-H1975 [11], 6.89%; in the series with NCI-H1975 [12], 7.27%. Further, the Activity came out at 0.08% with NCI-H1299 [14]; […] in the series with NCI-H1975 [16]; 3.83% with NCI-H1975 [17]; 0.5% in the series with NCI-H1299 [18]; 0.075% in the series with NCI-H1299 [19]; 1.7% with NCI-H1975 [20]. The IC50 in the series on A549 turned out to be 445 nM; in the series with NCI-H1299 [2], 3240 nM; in the series with NCI-H1975 [3] it was […]; in the series on HCC827, 2.48 nM. Moreover, the viability at 0.1 µM in the series with NCI-H1975 [5] amounted to 90.1%; in the series on NCI-H1299 [8], 98.2%. Moreover, the viability at 1 µM came out at 56.4% in the series with NCI-H1975 [6] and 97.3% in the series with NCI-H1299 [13]. For the same molecule, the “Ratio IC50” value in [1] turned out to be […]. Also, in [15], the fraction unbound at 4 h, 1 µM was 0.0133.
Take `C#CCN(CCCCCCCCC(=O)Nc1cccc2c1CN(C1CCC(=O)NC1=O)C2=O)CCN(C)c1cc(OC)c(Nc2nccc(-c3cn(C)c4ccccc34)n2)cc1NC(=O)C=C` (stereo unspecified): the IC50 with A549 is over 100000 nM; in the series with NCI-H1299 [2] it was over 100000 nM; in the series on NCI-H1975 [3], 3230 nM; in the series on HCC827, 1160 nM. Besides, the “Ratio IC50” value in series [1] is 31.
In the case of `O=C1CCC(N2C(=O)c3cccc(NCCOCCOCCOCCN4CCN(c5ccc(-c6ccc7c(c6)C(=O)N(C(C(=O)Nc6nccs6)c6ccccc6)C7)cn5)CC4)c3C2=O)C(=O)N1` (stereo unspecified), the half-maximal inhibitory concentration (IC50) with BaF3 [21] turned out to be 28 nM; in the series on BaF3 [22] it was 41 nM; with BaF3 [23], 50 nM.
Usually EC50 stands for the concentration needed to bring the measured effect to its halfway point. Take `Cc1ccsc1-c1ccc(CNC(=O)[C@@H]2C[C@@H](O)CN2C(=O)[C@@H](NC(=O)CCCCCOCCCCOCCCCOc2cc3ncnc(Nc4ccc(F)c(Cl)c4)c3cc2NC(=O)/C=C/CN(C)C)C(C)(C)C)cc1`: in [24], the EC50 was 216 nM.
